Each structure is given as a SMILES string.

On to `O=C(NC/C=C\COc1cc(CN2CCCCC2)ccn1)c1csnn1`, for which the melting point (as a rule, the temperature, or range, at which the solid turns liquid) is 70 to 72 °C.
Regarding `COc1ccc(C(C)(C)C)cc1C(N)=NO`, the melting point lay within 132 to 133 °C.
Under `CCS(=O)(=O)c1ccc(SC2SCC(O)C(O)C2O)cc1` (centres undefined) stands 130 to 135 °C; under `COC(=O)CC(c1ccc(C)cc1)N1C(=O)c2ccccc2C1=O` (centres undefined), 97 to 99 °C.
With `CC(C)NCCC(CCN1CCCCC1)(C(N)=O)c1ccccc1Cl` (centres undefined), the melting point lay within 134 to 137 °C.
On to `CC(C)(Oc1ccc(C(=O)c2ccccc2)cc1)C(=O)O`, for which the melting point came to 130 °C.
For `CN(C(=O)CN(C(=O)CN1C(=O)c2ccccc2C1=O)c1ccccc1Cl)c1ccccc1` the value was 168 °C; for `CC(C)(C)c1cc(Cl)cc2c1OC(=O)C2O` (centres undefined), 150 to 154 °C.
For `CC(C)N1CCCN=C1SC1=C(O)CC(c2ccccc2)OC1=O` (centres undefined) the value was 103 to 105 °C.
`OC1CSC(Oc2cncc(-c3cccs3)c2)C(O)C1O` (centres undefined) had a melting point of 205 °C.
`Cc1ccncc1Cn1nnnc1-c1cc(Cl)ccc1Cl`: the melting point was 169 to 171 °C.
For `CC(C)c1ccc2c(c1)c(-c1ccccc1Cl)c(C(=O)O)c(=O)n2C` the value was 184 to 185 °C.
As to `CC(=O)NCc1ccc(-c2csc(NC(C)=O)n2)s1`, the melting point amounted to 251 °C.
For `Cc1cc(OCc2ccccc2)cc(OCc2cccc(OCc3ccc4ccccc4n3)c2)c1C(=O)O` the value was 146 to 149 °C; for `O=C(NO)C1(NS(=O)(=O)c2ccc(OCc3ccc(Cl)cc3Cl)cc2)CC1c1ccccc1` (centres undefined), 164 to 169 °C; for `C[C@H](CSC(=O)C(C)(C)C)C(=O)N(CC(=O)O)C1CCCC1`, 155 to 156 °C.
For `COc1cccc(C(O)CN(C)Cc2sc3c(=O)c(C(=O)NCc4ccc(Cl)cc4)cn(C)c3c2COCC[Si](C)(C)C)c1` (centres undefined) the value was 150 to 152 °C; for `CCOCCNC(=O)C(c1ccccc1)c1ccccc1`, 83.5 to 86.2 °C.
`CCCc1nc2c(N)nc3c(c2n1CCCCC(=O)N1CCOCC1)CCCC3` returned a melting point of 158 to 160 °C.
Under `O=C1NN(C(=O)Oc2ccc(Cl)cc2)C(c2ccccc2)C1c1ccccc1` (centres undefined) stands 175 to 177 °C; under `COc1ccccc1N1CCN(C(=O)Nc2cc(C(C)O)c(C)nc2OC)CC1` (centres undefined), 88 to 90 °C; under `CCOCc1nc2c(NC(=O)C(C)C)nc3ccccc3c2n1CC(C)(C)NS(C)(=O)=O`, 67 to 70 °C.
For `CC(C)n1nc(-c2c(-c3ccccc3)nc(N)nc2N2CCNCC2)ccc1=O` the value was 254 to 256 °C; for `CN1CCN(C2=C3CN(C)CC34CC(=CC#N)C=CC4=NC=C2)CC1` (centres undefined), 178 to 180 °C; for `CS(=O)(=O)c1ccc(Nc2cc(N3CCOCC3)nc(-c3ccccc3)n2)cc1`, 238 to 240 °C.
In turn, `CC(C)c1ccc(C(=O)N(C(=N)N)C(=O)c2ccc(C(C)C)c(S(C)(=O)=O)c2)cc1S(C)(=O)=O` showed a melting point of 218 to 221 °C.
`CC(C)(C)C(=O)c1ccc(C2(C)OCCO2)cc1` showed a melting point of 75 to 82 °C.
`COc1cc(/C=C/C(=O)Nc2ccccc2C(=O)O)ccc1OCC1CCCCC1` had a melting point of 207 to 210 °C.
For `CCOC(=O)N1C(NC(C)C)=NS(=O)(=O)c2c1cnn2C` the value was 141 to 145 °C; for `O=C1OCc2c1cc1ccc3c(c1c2-c1ccc(OC(F)(F)F)cc1)OCO3`, 222 to 225 °C.
The compound `CCCN(CCC)C(=O)C(CCC(N)=O)NC(=O)C=Cc1ccco1` (centres undefined) displayed a melting point of 152 to 153 °C.
`CNc1nc(-c2cccc(-c3cnc4c(C)cccc4c3)c2)c2cc(OC)c(OC)cc2n1` showed a melting point of 188 to 190 °C.
Under `CC(C)Nc1nc2ccccc2n2c(C(F)(F)F)nnc12` stands 185 to 187 °C; under `COc1ccc(C(=O)Nc2ccccc2)cc1NS(=O)(=O)c1cccc2c(N(C)C)cccc12`, 231 to 232 °C.

(Values after a melting point compilation (Tetko et al.; mined from patent text by program, amines drawn as free bases though some values may be those of a salt).)
